Values of other authors, collected in patent US20120301405A1, “Simple Mechanical Procedure and Product for Deterring Substance Abuse” (priority 2005, published 2012).
Read-outs that look alike come from different tables or passages of the source.

Assays:
benzodiazepine receptors = conditions: for AED (Approximate Equivalent Dose): based on clinical experience
[1] = for Time to Peak (onset of action, in hours): maximum levels of the drug in the blood after a given dose; for Elimination ½-Life (h) [active metabolite]: value in square brackets
[2] = atypical benzodiazepine receptor ligands table

| Compound | AED (Approximate Equivalent Dose) (benzodiazepine receptors; benzodiazepine table) | Time to Peak (onset of action, in hours) [1] | Elimination ½-Life ([1]; parent drug) | further results |
| --- | --- | --- | --- | --- |
| Cc1nnc2n1-c1ccc(Cl)cc1C(c1ccccc1)=NC2 [Alprazolam] | 0.5 mg | 1 to 2 h | 6 to 12 h | – |
| CC(C)(C)OC(=O)c1ncn2c1[C@@H]1CCCN1C(=O)c1c(Br)cccc1-2 [Bretazenil] | 0.5 mg | – | 2.5 h | – |
| O=C1CN=C(c2ccccn2)c2cc(Br)ccc2N1 [Bromazepam] | 5 to 6 mg | 1 to 3 h | 10 to 20 h | – |
| Cc1nnc2n1-c1sc(Br)cc1C(c1ccccc1Cl)=NC2 [Brotizolam] | 0.25 mg | 0.5-2^ hours | 4 to 5 h | – |
| CNC1=Nc2ccc(Cl)cc2C(c2ccccc2)=[N+]([O-])C1 [Chlordiazepoxide] | – | – | – | elimination half-life in the elderly compared to younger individuals ([1]; elderly vs younger individuals): twice as long |
| N#CCCN1C(=O)C(O)N=C(c2ccccc2F)c2cc(Cl)ccc21 (centres unmarked) [Cinolazepam] | 40 mg | 0.5-2^ hours | 9 h | – |
| CN1C(=O)CC(=O)N(c2ccccc2)c2cc(Cl)ccc21 [Clobazam] | – | – | – | AED (Approximate Equivalent Dose) (benzodiazepine receptors; [2]): 20 mg; Elimination ½-Life [1, 2]: 8 to 60 h |
| O=C1CN=C(c2ccccc2Cl)c2cc([N+](=O)[O-])ccc2N1 [Clonazepam] | 0.5 mg | 1 to 4 h | 18 to 50 h | – |
| O=C(O)C1N=C(c2ccccc2)c2cc(Cl)ccc2NC1=O (centres unmarked) [Clorazepate] | 15 mg | variable | 36 to 100 h | – |
| CCc1cc2c(s1)N(C)C(=O)CN=C2c1ccccc1Cl [Clotiazepam] | 5 to 10 mg | 1 to 3 h | 6 to 18 h | – |
| O=C1CN2CCOC2(c2ccccc2Cl)c2cc(Cl)ccc2N1 (centres unmarked) [Cloxazolam] | 1 mg | – | – | – |
| O=C1CN=C(c2ccccc2Cl)c2cc(Cl)ccc2N1 [Delorazepam] | 1 mg | 1 to 2 h | 60 to 140 h | – |
| CN1C(=O)CN=C(c2ccccc2)c2cc(Cl)ccc21 [Diazepam] | 10 mg | 1 to 1.5 h | 20 to 100 h | equivalent dose in an elderly individual on lorazepam versus what would be expected in a younger individual (benzodiazepine receptors; elderly individual on lorazepam): up to half; Elimination ½-Life (h) [active metabolite] [1]: [36-200] h |
| Clc1ccc2c(c1)C(c1ccccc1)=NCc1nncn1-2 [Estazolam] | 1 to 2 mg | 1 to 5 h | 10 to 24 h | – |
| CN1CCN(C(=O)O[C@H]2c3nccnc3C(=O)N2c2ccc(Cl)cn2)CC1 [Eszopiclone] | – | – | – | Elimination ½-Life [1, 2]: 6 h |
| CCc1cc2c(s1)-n1c(C)nnc1CN=C2c1ccccc1Cl [Etizolam] | 1 mg | 1 to 2 h | 6 h | – |
| CCOC(=O)c1ncn2c1CN(C)C(=O)c1cc(F)ccc1-2 [Flumazenil] | – | – | – | Elimination ½-Life [1, 2]: 1 h |
| CN1C(=O)CN=C(c2ccccc2F)c2cc([N+](=O)[O-])ccc21 [Flunitrazepam] | 1 mg | 0.5-3^ hours | 18 to 26 h | – |
| CCN(CC)CCN1C(=O)CN=C(c2ccccc2F)c2cc(Cl)ccc21 [Flurazepam] | 15 to 30 mg | 1 to 1.5 h | 40 to 250 h | – |
| O=C1CN=C(c2ccccc2F)c2cc(Cl)ccc2N1CC1CC1 [Flutoprazepam] | 2 to 3 mg | 0.5-9^ hours | 60 to 90 h | – |
| O=C1CN=C(c2ccccc2)c2cc(Cl)ccc2N1CC(F)(F)F [Halazepam] | 20 to 40 mg | 1 to 3 h | 30 to 100 h | – |

| Compound | AED (Approximate Equivalent Dose) (benzodiazepine receptors; benzodiazepine table) | Time to Peak (onset of action, in hours) [1] | Elimination ½-Life ([1]; parent drug) | further results |
| --- | --- | --- | --- | --- |
| CC1=CC(=O)N2CC(=O)N(C)c3ccc(Cl)cc3C2(c2ccccc2)O1 (centres unmarked) [Ketazolam] | 15 to 30 mg | 2.5-3^ hours | 30 to 100 h | Elimination ½-Life (h) [active metabolite] [1]: [36-200] h |
| CN1CCN(/C=C2\N=C3CN=C(c4ccccc4Cl)c4cc([N+](=O)[O-])ccc4N3C2=O)CC1 [Loprazolam] | 1 to 2 mg | 0.5-4^ hours | 6 to 12 h | – |
| O=C1Nc2ccc(Cl)cc2C(c2ccccc2Cl)=NC1O (centres unmarked) [Lorazepam] | 1 mg | 2 to 4 h | 10 to 20 h | – |
| CN1C(=O)C(O)N=C(c2ccccc2Cl)c2cc(Cl)ccc21 (centres unmarked) [Lormetazepam] | 1 to 2 mg | 0.5-2^ hours | 10 to 12 h | – |
| CN1CCN=C(c2ccccc2)c2cc(Cl)ccc21 [Medazepam] | 10 mg | – | 36 to 200 h | – |
| Cc1ncc2n1-c1ccc(Cl)cc1C(c1ccccc1F)=NC2 [Midazolam] | 5 to 8 mg | 0.5-1^ hours | – | – |
| CN1C(=O)CN=C(c2ccccc2)c2cc([N+](=O)[O-])ccc21 [Nimetazepam] | 5 mg | 0.5-3^ hours | 14 to 30 h | – |
| O=C1CN=C(c2ccccc2)c2cc([N+](=O)[O-])ccc2N1 [Nitrazepam] | 10 mg | 0.5-7^ hours | 15 to 38 h | – |
| O=C1CN=C(c2ccccc2)c2cc(Cl)ccc2N1 [Nordazepam] | 10 mg | – | 50 to 120 h | – |
| O=C1Nc2ccc(Cl)cc2C(c2ccccc2)=NC1O (centres unmarked) [Oxazepam] | – | 3 to 4 h | 4 to 15 h | – |
| O=C1CN=C(c2ccccc2Cl)c2cc(Br)ccc2N1 [Phenazepam] | 1 mg | 1.5-4^ hours | 60 h | – |
| C#CCN1C(=O)CN=C(c2ccccc2)c2cc(Cl)ccc21 [Pinazepam] | 20 mg | – | 40 to 100 h | – |
| O=C1CN=C(c2ccccc2)c2cc(Cl)ccc2N1CC1CC1 [Prazepam] | 20 mg | 2 to 6 h | 36 to 200 h | – |
| Cc1c2c(cn1C)NC(=O)CN=C2c1ccccc1 [Premazepam] | 3.75 mg | 2 to 6 h | 10 to 13 h | – |
| Fc1ccccc1C1=NCC(=S)N(CC(F)(F)F)c2ccc(Cl)cc21 [Quazepam] | 20 mg | 1 to 5 h | 39 to 120 h | – |
| CN1C(=O)C(O)N=C(c2ccccc2)c2cc(Cl)ccc21 (centres unmarked) [Temazepam] | 20 mg | 0.5-3^ hours | 8 to 22 h | – |
| CN1C(=O)CN=C(C2=CCCCC2)c2cc(Cl)ccc21 [Tetrazepam] | 100 mg | 1 to 3 h | 3 to 26 h | – |
| Cc1nnc2n1-c1ccc(Cl)cc1C(c1ccccc1Cl)=NC2 [Triazolam] | 0.25 mg | 0.5-2^ hours | 2 h | – |
| CCN(C(C)=O)c1cccc(-c2ccnc3c(C#N)cnn23)c1 [Zaleplon] | – | – | – | AED (Approximate Equivalent Dose) (benzodiazepine receptors; [2]): 20 mg |
| Cc1ccc(-c2nc3ccc(C)cn3c2CC(=O)N(C)C)cc1 [Zolpidem] | – | – | – | AED (Approximate Equivalent Dose) (benzodiazepine receptors; [2]): 20 mg; Elimination ½-Life [1, 2]: 2.6 h |
| CN1CCN(C(=O)OC2c3nccnc3C(=O)N2c2ccc(Cl)cn2)CC1 (centres unmarked) [Zopiclone] | – | – | – | AED (Approximate Equivalent Dose) (benzodiazepine receptors; [2]): 15 mg; Elimination ½-Life [1, 2]: 4 to 6 h |
